Assay results: ChEMBL document CHEMBL3593183, “Polycyclic Polyprenylated Xanthones from Symphonia globulifera: Isolation and Biomimetic Electrosynthesis” (J Nat Prod, 2015)

Tested on: HCT-116
Test: Cytotoxicity against human HCT116 cells after 72 hrs by MTS assay
Assay type: functional, cell-based
Details: HCT-116, 72 h

| SMILES | IC50 [µM] |
| --- | --- |
| CC(C)=CCC[C@]1(C)[C@@H](CC=C(C)C)C[C@@]2(CC=C(C)C)C(=O)c3c(oc4cc(O)c(O)cc4c3=O)[C@]1(CC=C(C)C)C2=O | 8 |
| CC(C)=CCC[C@]1(C)[C@@H](CC=C(C)C)C[C@]2(CC=C(C)C)C(=O)[C@@]1(CC=C(C)C)C(=O)c1c2oc2cc(O)c(O)cc2c1=O | 3 |
